The values that follow come from patent US4137322A, “ML-236B carboxylic acid derivatives and their use as antihyperlipemic agents” (Sankyo Company Limited, priority 1976, dated 1979).

The subject of one data set is cholesterol biosynthesis. Nature of the data set: Inhibition of cholesterol biosynthesis. The format is biochemical.
Data set [1] has as its target T1, 3-hydroxy-3-methylglutaryl-CoA reductase (Rattus norvegicus, UniProt P51639).
T1 construct: Employed as an enzyme microsome of rat liver; from tissue; host or cells: rat liver microsomes
T1 sequence (P51639 1-887): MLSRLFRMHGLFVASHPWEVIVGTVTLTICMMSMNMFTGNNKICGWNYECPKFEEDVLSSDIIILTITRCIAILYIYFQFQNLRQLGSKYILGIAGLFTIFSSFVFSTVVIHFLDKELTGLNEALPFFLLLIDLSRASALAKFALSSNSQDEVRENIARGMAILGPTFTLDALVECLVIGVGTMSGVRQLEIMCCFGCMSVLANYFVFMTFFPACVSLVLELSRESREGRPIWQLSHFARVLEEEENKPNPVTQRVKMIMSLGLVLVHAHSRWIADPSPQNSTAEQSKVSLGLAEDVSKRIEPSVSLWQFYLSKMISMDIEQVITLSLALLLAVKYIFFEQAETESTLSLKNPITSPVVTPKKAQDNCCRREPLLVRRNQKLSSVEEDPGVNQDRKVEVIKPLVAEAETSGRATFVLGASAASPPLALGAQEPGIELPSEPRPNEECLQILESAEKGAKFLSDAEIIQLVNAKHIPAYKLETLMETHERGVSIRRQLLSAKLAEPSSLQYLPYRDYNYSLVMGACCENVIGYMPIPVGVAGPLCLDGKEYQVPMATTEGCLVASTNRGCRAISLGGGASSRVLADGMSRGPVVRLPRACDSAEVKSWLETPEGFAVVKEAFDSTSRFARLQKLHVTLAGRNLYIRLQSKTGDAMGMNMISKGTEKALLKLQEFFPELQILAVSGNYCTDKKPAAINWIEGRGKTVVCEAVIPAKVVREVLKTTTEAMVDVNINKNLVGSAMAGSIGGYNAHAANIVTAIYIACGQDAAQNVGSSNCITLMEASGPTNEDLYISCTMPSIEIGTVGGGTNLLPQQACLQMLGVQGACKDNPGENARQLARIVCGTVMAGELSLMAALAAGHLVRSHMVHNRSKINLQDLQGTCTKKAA
In words: Inhibition of 3-hydroxy-3-methylglutaryl-CoA reductase. The format is biochemical. To be noted: enzyme: microsome of rat liver; read-out: Concentration to inhibit 50% of 3-hydroxy-3-methylglutaryl-CoA reductase (converted). From the text: Inhibition activity of cholesterol biosynthesis [determined according to the method disclosed in J. Biol. Chem., 234, 2835 (1959)] and inhibition activity on 3-hydroxy-3-methylglutaryl-CoA reductase [determined according to the method disclosed in Anal. Biochem., 31, 383 (1969)] of these compounds are summarized in Table 1.
*Employed as an enzyme microsome of rat liver.

In the next data set the test system is Mouse. Nature of the data set: Acute toxicity in mouse. Conditions: aqueous suspension. As for the experimental part:
(§1) Acute toxicity of ML-236B carboxylic acid derivatives (I) was determined in oral and intraperitoneal administration (both as an aqueous suspension).

A short description of a further data set: Acute toxicity in mouse. Conditions: in vivo, ip, LD50, mouse, aqueous suspension. As for the experimental part:
as §1

The subject of data set [2] is serum cholesterol in rats. Nature of the data set: Lowering activity of blood cholesterol in rats. In kind it is in vivo, rat. Conditions: rats, oral, after 18 hours; for inhibition in vivo at 5 mg/kg / inhibition in vivo at 20 mg/kg: Rattus norvegicus, po, 18 h, read-out: Lowering rate of serum cholesterol. As for the experimental part:
A lowering activity of blood cholesterol in rats was assayed on rats. The test was to orally administer a test sample suspended in water, collect a blood sample after 18 hours and determine a cholesterol level in serum by a conventional method.

In data set [3] the test system is total serum cholesterol in beagle dogs. Nature of the data set: Lowering activity of blood cholesterol in beagle dogs. To be noted: beagle dogs, oral twice per day, 5 days; for inhibition in vivo at 25 mg/kg/day / inhibition in vivo at 100 mg/kg/day: Canis lupus familiaris, po, 120 h, read-out: Lowering rate of total serum cholesterol. The format is in vivo, beagle dog. From the text:
The test was to orally administer an encapsulated test sample twice per day, in the morning (9 o'clock) and evening (16 o'clock), for continuous 5 days, collect a blood sample in the morning after 5 days and determine a total cholesterol level in serum by a conventional method.

A further data set concerns Rat. Nature of the data set: Acute toxicity in rat. To be noted: aqueous suspension. As for the experimental part:
as §1

Another data set in a line: Acute toxicity in rat. To be noted: in vivo, LD50, rat, aqueous suspension. The procedure:
as §1

Where [4] appears, read: p.o., listed as ML-236B Na salt.

Where a name gives a salt, the structure may show the parent alone. Some results are limits rather than exact numbers.

The LD50 is the dose at which mortality reaches 50%. With `CCC(C)C(=O)OC1CCC=C2C=CC(C)C(CCC(O)CC(O)CC(=O)O)C21` (stereo not shown) [Na, Sodium ML-236B carboxylate], the “Concentration to inhibit 50% of cholesterol biosynthesis” value in the data set on cholesterol biosynthesis stood at 0.006 µg/mL. In addition, the IC50 in data set [1] is 392 nM. Further, the LD50 is > 2,000 mg/kg in the data set with Mouse (setting [4]), above 500 mg/kg in the data set “Acute toxicity in mouse”, > 2,000 mg/kg with Rat (setting [4]) and above 500 mg/kg in the data set “Acute toxicity in rat” (ip). The inhibition in vivo at 5 mg/kg in data set [2] (5 mg/kg) is 20.6%. Moreover, the inhibition in vivo at 20 mg/kg in data set [2] (20 mg/kg) stood at 23.1%. In data set [3] (25 mg/kg/day), the inhibition in vivo at 25 mg/kg/day was determined as 24%. Besides, the inhibition in vivo at 100 mg/kg/day in data set [3] (100 mg/kg/day) is 47%.
Turning to `CCC(C)C(=O)OC1CCC=C2C=CC(C)C(CCC(O)CC(O)CC(=O)O)C21` (stereo not shown) [Ca, Calcium ML-236B carboxylate], the “Concentration to inhibit 50% of cholesterol biosynthesis” value in the data set on cholesterol biosynthesis amounted to 0.006 µg/mL. The LD50 in the data set with Mouse (i.p.) was above 500 mg/kg; in the data set on Mouse (p.o., listed as Ca salt) it was > 2,000 mg/kg; with Rat (i.p.), above 500 mg/kg; in the data set on Rat (p.o., listed as Ca salt) it was > 2,000 mg/kg. The “Lowering rate of serum cholesterol” value in data set [2] (5 mg/kg, 5 mg/kg) is on record as 16.5%; in data set [2] (20 mg/kg, 20 mg/kg), 20.9%. Besides, the “Lowering rate of total serum cholesterol” value in data set [3] (25 mg/kg/day) stood at 28%; in data set [3] (100 mg/kg/day) it was 44%.
As to `CCC(C)C(=O)OC1CCC=C2C=CC(C)C(CCC(O)CC(O)CC(=O)O)C21` (stereo not shown) [Lysine, Lysine salt of ML-236B carboxylic acid], in the data set with cholesterol biosynthesis, the “Concentration to inhibit 50% of cholesterol biosynthesis” value came out at 0.006 µg/mL. The median lethal dose (LD50) was above 500 mg/kg in the data set with Mouse (i.p.), > 5,000 mg/kg with Mouse (p.o.), above 500 mg/kg with Rat (i.p.) and > 5,000 mg/kg with Rat (p.o.). The “Lowering rate of serum cholesterol” value in data set [2] (5 mg/kg, 5 mg/kg) is recorded as 16.9%; in data set [2] (20 mg/kg, 20 mg/kg) it was 23.8%. Further, the results for the “Lowering rate of total serum cholesterol” value in data set [3] (25 mg/kg/day) and in data set [3] (100 mg/kg/day) were 24% and 44%, respectively.
As for `CCC(C)C(=O)OC1CCC=C2C=CC(C)C(CCC(O)CC(O)CC(=O)O)C21` (stereo not shown) [Al, Aluminum ML-236B carboxylate], in the data set on cholesterol biosynthesis, the “Concentration to inhibit 50% of cholesterol biosynthesis” value was found to be 0.006 µg/mL. Moreover, the LD50 in the data set with Mouse (i.p.) is above 500 mg/kg; with Mouse (p.o., listed as Al salt), > 2,000 mg/kg; in the data set with Rat (i.p.), above 500 mg/kg; in the data set with Rat (p.o., listed as Al salt) it was > 2,000 mg/kg. For the same compound, the “Lowering rate of serum cholesterol” value turned out to be 18.3% in data set [2] (5 mg/kg, 5 mg/kg) and 22.1% in data set [2] (20 mg/kg, 20 mg/kg). In addition, the “Lowering rate of total serum cholesterol” value in data set [3] (25 mg/kg/day) is listed as 26%; in data set [3] (100 mg/kg/day), 41%.
Regarding `CCC(C)C(=O)OC1CCC=C2C=CC(C)C(CCC(O)CC(O)CC(=O)OCC(=O)c3ccc(OC)cc3)C21` (stereo not shown) [4-methoxyphenacyl, 4-Methoxyphenacyl ML-236B carboxylate], the “Concentration to inhibit 50% of cholesterol biosynthesis” value in the data set on cholesterol biosynthesis worked out at 0.01 µg/mL. Moreover, in data set [1], the IC50 is 359 nM. For the same compound, the figures for the LD50 in the data set “Acute toxicity in mouse” and in “Acute toxicity in rat” (po) were above 500 mg/kg and above 2000 mg/kg, respectively. The inhibition in vivo at 5 mg/kg in data set [2] (5 mg/kg) amounted to 14%. For the same compound, the inhibition in vivo at 20 mg/kg in data set [2] (20 mg/kg) is 23%. Also, the inhibition in vivo at 25 mg/kg/day in data set [3] (25 mg/kg/day) was determined as 26%. Moreover, in data set [3] (100 mg/kg/day), the inhibition in vivo at 100 mg/kg/day was 39%.
On to `CCC(C)C(=O)OC1CCC=C2C=CC(C)C(CCC(O)CC(O)CC(=O)O)C21` (stereo not shown) [Arginine, Arginine salt of ML-236B carboxylic acid], for which the “Concentration to inhibit 50% of cholesterol biosynthesis” value in the data set on cholesterol biosynthesis was 0.007 µg/mL. Further, in data set [1], the IC50 was 441 nM. Moreover, the LD50 with Mouse (i.p.) was above 500 mg/kg; in the data set on Mouse (p.o.) it was > 5,000 mg/kg; with Rat (i.p.), above 500 mg/kg; in the data set on Rat (p.o.), > 5,000 mg/kg. Moreover, the “Lowering rate of serum cholesterol” value amounted to 19.6% in data set [2] (5 mg/kg, 5 mg/kg) and 24.1% in data set [2] (20 mg/kg, 20 mg/kg). The “Lowering rate of total serum cholesterol” value in data set [3] (25 mg/kg/day) came to 26%; in data set [3] (100 mg/kg/day), 45%.
